[invAb] = inverted abasic unit; d = 2'-deoxy (DNA); m = 2'-O-methyl; r = 2'-OH (RNA); f = 2'-fluoro
Assays:
mTSLP mRNA = experiment: Initial screening: mouse TSLP mRNA knock-down by RT-PCR (Taqman) after RNAiMax transfection of NIH 3T3 cells; assay type: cell-based; details: 10 nM siNA, 24 hrs post-transfection, mean ± s.d., summary from 2 screens
TSLP protein = experiment: TSLP ELISA in IL-1β/TNFα-stimulated NHLF cells; assay type: cell-based, human; details: relative to UC3 siRNA at matched concentration, siNA range 10 nM-0.00015 nM, concentration of the value not stated, mean ± s.d.
Experimental: In a 96-well plate, 57,500 NHLFcells/well were seeded in 100 uL of complete growth media and incubated overnight at 37° C. with 5% CO2. The cells were transfected with siNAs using RNAiMax (Invitrogen, Cat#13778-150); final concentration of siNAs is 10 nM-0.00015 nM. The amount of RNAiMax in each well is 0.3 uL. The siNAs were incubated for 6 hours. The medium was replaced with 95 uL of fresh complete growth medium and 5 uL/well of IL-1β/TNFα at 10 ng/ml final concentration was added. The cells were incubated for 24 hours. 95 uL of the medium from each well was collected into a separate 96-well plate. The samples were frozen immediately at −80° C. until ready the assay was ready to be performed.
ELISA was performed using DuoSet ELISA Development System (R&D systems, Cat # DY1398) according to the manufacturer's instructions. A seven point standard curve using 2-fold serial dilution in reagent diluent buffer and a high standard of 1000 pg/ml was used. The samples were not diluted. Absorbance was obtained at […] (LM1) and […] (LM2) and the difference (LM1-LM2) was recorded on a SpectraMax plate reader (Molecular Devices) within 30 minutes of stopping the reaction.
Various siNAs were also evaluated for their potential to knock-down TSLP protein using an ELISA assay. Six siNAs were tested in an TSLP ELISA assay across a range of concentrations of siNAs and the level of reduction of protein was determined relative to treatment of the cells with identical concentrations of the negative universal control siNA (UC3) (see Table 6).

TSLP mRNA [1] = experiment: Initial screening: TSLP mRNA knock-down by RT-PCR (Taqman) after RNAiMax transfection of NHLF cells; assay type: cell-based; details: 10 nM siNA, human NHLF cells; for % KD TSLP: 24 hrs post-transfection, relative to non-targeting control, normalized to GAPDH, mean ± s.d. from 2 experiments; for % KD TSLP (10 nM): mean ± s.d. (Table 5)
TSLP mRNA [2] = experiment: Dose response curves of TSLP mRNA knock-down in NHLF cells; assay type: cell-based; details: human NHLF cells, mean ± s.d.; for IC50: TSLP mRNA knock-down, 12 concentrations from 0.083 fM to 30 nM; for Maximum % KD in DRC: 12 concentrations of siNA from 0.083 fM to 30 nM
Experimental: NHLF (human; Lonza cat# CC-2512): Cells were cultured at 37° C. in the presence of 5% CO2 and grown Fibroblast Basal Medium (Lonza cat# CC-3β2) supplemented growth factors (provided with the kit) and 100 μg/mL of streptomycin and 100 U/mL penicillin.
Dose response curves were carried out in a similar fashion in 96-well plates, while maintaining a constant amount of RNAiMax in each transfection.
RNA was extracted from a 96-well plate using the TaqMan® Gene Expression Cells-to-CT™ Kit (Cat# 4399002) with a modified protocol. Briefly, a 60 uL (1 plate) or 110 uL (2 plates) of the Lysis Solution with DNase I was dispensed into each well of the Lysis Buffer Plate (twin.tec full skirt plate). The lysis buffer and stop plates were stored at 4° C. until the cells were washed.
Each well of the reverse transcription plate required 10 uL of 2× reverse transcriptase Buffer, luL of 20× reverse transcription enzyme and 2 uL of nuclease-free water. The reverse transcription master mix was prepared by mixing 2× reverse transcription buffer, 20× reverse transcription enzyme mix, and nuclease-free water. 13 uL of the reverse transcription master mix was dispensed into each well of the reverse transcription plate (semi-skirted). A separate reverse transcription plate was prepared for each cell plate. The plate was loaded onto a Biomek NX or Biomek FX Dual-96 and the Biomek method was run. The program is programmed to automatically added 7 uL of lysate from the cell lysis procedure described above into each well of the reverse transcription plate. The plate is sealed and spun on a centrifuge (1000 rpm for 30 seconds) to settle the contents to the bottom of the reverse transcription plate. The plate is placed in a thermocycler at 37° C. for 60 min, 95° C. for 5 min, and 4° C. until the plate is removed from the thermocycler. Upon removal, if not used immediately, the plate was frozen at −20° C.
A series of probes and primers were used to detect the various mRNA transcripts of the genes of TSLP, IL-8 and GAPDH in human cell lines. All the Taqman probes and primers for the experiments here-in described were supplied as pre-validated sets by Applied Biosystems, Inc. (see Table 2). The assays were performed on an ABI 7900 instrument, according to the manufacturer's instructions.
A TaqMan Gene Expression Master Mix (provided in the Cells-to-CT™, Applied Biosystems, Cat #4399002) was used. The PCR reactions were carried out at 50° C. for 2 min, 95° C. for 20 min followed by 40 cycles at 95° C. for 15 secs and 60° C. for 1 min.
The expression level of the gene of interest and % knock-down was calculated using Comparative Ct method: […]
All calculations of IC50s were performed using SigmaPlot 10.0 software. The data were analyzed using the sigmoidal dose-response (variable slope) equation for simple ligand binding. In all of the calculations of the % knock-down, the calculation was made relative to the normalized level of expression of the gene of interest in the samples treated with the non-targeting control (Ctrl siNA) unless otherwise indicated.
Summary data, as to potency and efficacy for TSLP mRNA knock-down in human cells for certain siNA molecules, is presented in Table 5. Cells for the experiments were treated with 12 concentrations of siNA ranging from 0.083 fM to 30 nM. All of the data is presented as % knockdown of TSLP normalized against the expression of GAPDH mRNA expression level. Then the data was determined as a % knockdown relative to the non-targeting control siNA.

For “25450-DC: siNA duplex: sense B AuuuuGuGAAcAcuuuuGA TTB (SEQ ID NO: 83), antisense UCAAAAGuGuucAcAAAAuUU (SEQ ID NO: 84) (sense AUUUUGUGAACACUUUUGATT; antisense UCAAAAGUGUUCACAAAAUUU; sense: DNA at AGT, 2'-fluoro at CU, [invAb] at 5' end, 3' end, backbone not given here; antisense: sugars from the 5' end rrrmmmmfmfffmfmmmmfmm, backbone not given here)”, the “% KD mTSLP NIH3T3” value (mTSLP mRNA) was 8.8 ± 11%, the “% Reduction TSLP Protein” value (TSLP protein) was 44 ± 27.9% and the “% KD TSLP” value (TSLP mRNA [1]) was 82 ± 9.8%. For the same substance, the “% KD TSLP (10 nM)” value (TSLP mRNA [1]) was 82 ± 9.8%, the IC50 (TSLP mRNA [2]) was 1.5 ± 0.3 pM and the “Maximum % KD in DRC” value (TSLP mRNA [2]) was 75 ± 2%.
For “25446-DC: siNA duplex: sense B cAGAAGAGuuucuuAAcuu TTB (SEQ ID NO: 75), antisense AAGuuAAGAAAcucuucuGUU (SEQ ID NO: 76) (sense CAGAAGAGUUUCUUAACUUTT; antisense AAGUUAAGAAACUCUUCUGUU; sense: DNA at AGT, 2'-fluoro at CU, [invAb] at 5' end, 3' end, backbone not given here; antisense: sugars from the 5' end r3 f2 m6 f7 m3, backbone not given here)”, the “% KD mTSLP NIH3T3” value (mTSLP mRNA) was −32.1 ± 18.3%, the “% Reduction TSLP Protein” value (TSLP protein) was 64.7 ± 3.5% and the “% KD TSLP” value (TSLP mRNA [1]) was 84 ± 3.6%. The “% KD TSLP (10 nM)” value (TSLP mRNA [1]) was 84 ± 3.6%, the IC50 (TSLP mRNA [2]) was 9.1 ± 2.4 pM and the “Maximum % KD in DRC” value (TSLP mRNA [2]) was 85 ± 2%.
With “25434-DC: siNA duplex: sense B GuGGuAuAuAcAAGuAGAu TTB (SEQ ID NO: 51), antisense AUCuAcuuGuAuAuAccAcUU (SEQ ID NO: 52) (sense GUGGUAUAUACAAGUAGAUTT; antisense AUCUACUUGUAUAUACCACUU; sense: DNA at AGT, 2'-fluoro at CU, [invAb] at 5' end, 3' end, backbone not given here; antisense: sugars from the 5' end rrrfmfffmfmfmfmffmfmm, backbone not given here)” the “% KD mTSLP NIH3T3” value (mTSLP mRNA) was 12.6 ± 6.5%, the “% Reduction TSLP Protein” value (TSLP protein) was 82.1 ± 11.8% and the “% KD TSLP” value (TSLP mRNA [1]) was 85 ± 7.6%. The “% KD TSLP (10 nM)” value (TSLP mRNA [1]) was 85 ± 7.6%, the IC50 (TSLP mRNA [2]) was 6.7 ± 2.5 pM and the “Maximum % KD in DRC” value (TSLP mRNA [2]) was 79 ± 3%.
With “25438-DC: siNA duplex: sense B GAAGcAAuuuGAAAuAAuu TTB (SEQ ID NO: 59), antisense AAUuAuuucAAAuuGcuucUU (SEQ ID NO: 60) (sense GAAGCAAUUUGAAAUAAUUTT; antisense AAUUAUUUCAAAUUGCUUCUU; sense: DNA at AGT, 2'-fluoro at CU, [invAb] at 5' end, 3' end, backbone not given here; antisense: sugars from the 5' end rrrfmffffmmmffmffffmm, backbone not given here)” the “% KD mTSLP NIH3T3” value (mTSLP mRNA) was 9.8 ± 12.2%, the “% Reduction TSLP Protein” value (TSLP protein) was 51.9 ± 14.1% and the “% KD TSLP” value (TSLP mRNA [1]) was 85 ± 6.8%. The “% KD TSLP (10 nM)” value (TSLP mRNA [1]) was 85 ± 6.8%, the IC50 (TSLP mRNA [2]) was 4.1 ± 1.2 pM and the “Maximum % KD in DRC” value (TSLP mRNA [2]) was 79 ± 4%.
In the case of “25449-DC: siNA duplex: sense B AGAAGAGuuucuuAAcuuA TTB (SEQ ID NO: 81), antisense UAAGuuAAGAAAcucuucuUU (SEQ ID NO: 82) (sense AGAAGAGUUUCUUAACUUATT; antisense UAAGUUAAGAAACUCUUCUUU; sense: sugars from the 5' end d7 f6 d2 f3 d3, [invAb] at 5' end, 3' end, backbone not given here; antisense: sugars from the 5' end rrrmffmmmmmmfffffffmm, backbone not given here)”, the “% KD mTSLP NIH3T3” value (mTSLP mRNA) is reported as 52.9 ± 11.8%, the “% Reduction TSLP Protein” value (TSLP protein) is reported as 45 ± 23.2% and the “% KD TSLP” value (TSLP mRNA [1]) is reported as 84 ± 2.1%. For the same substance, the “% KD TSLP (10 nM)” value (TSLP mRNA [1]) was 84 ± 2.1%, the IC50 (TSLP mRNA [2]) was 10.2 ± 3.1 pM and the “Maximum % KD in DRC” value (TSLP mRNA [2]) was 82 ± 1%.
For “25470-DC: siNA duplex: sense B AAAGuAGAAAAAAAAAuuA TTB (SEQ ID NO: 123), antisense UAAuuuuuuuuucuAcuuuUU (SEQ ID NO: 124) (sense AAAGUAGAAAAAAAAAUUATT; antisense UAAUUUUUUUUUCUACUUUUU; sense: sugars from the 5' end d4 f1 d11 f2 d3, [invAb] at 5' end, 3' end, backbone not given here; antisense: sugars from the 5' end r3 f11 m1 f4 m2, backbone not given here)”, the “% KD mTSLP NIH3T3” value (mTSLP mRNA) was 19.3 ± 10.3% and the “% KD TSLP” value (TSLP mRNA [1]) was 28 ± 22.6%.
For “25436-DC: siNA duplex: sense B GccAAGuuuuAAAuAuuAu TTB (SEQ ID NO: 55), antisense AUAAuAuuuAAAAcuuGGcUU (SEQ ID NO: 56) (sense GCCAAGUUUUAAAUAUUAUTT; antisense AUAAUAUUUAAAACUUGGCUU; sense: DNA at AGT, 2'-fluoro at CU, [invAb] at 5' end, 3' end, backbone not given here; antisense: sugars from the 5' end rrrmfmfffmmmmfffmmfmm, backbone not given here)”, the “% KD mTSLP NIH3T3” value (mTSLP mRNA) was 19.3 ± 6.1%, the “% Reduction TSLP Protein” value (TSLP protein) was 71.7 ± 20.3% and the “% KD TSLP” value (TSLP mRNA [1]) was 90 ± 5.1%. The “% KD TSLP (10 nM)” value (TSLP mRNA [1]) was 90 ± 5.1%, the IC50 (TSLP mRNA [2]) was 4.1 ± 1.6 pM and the “Maximum % KD in DRC” value (TSLP mRNA [2]) was 86 ± 3%.
With “25465-DC: siNA duplex: sense B cuGcuAuGAAAAucucuAu TTB (SEQ ID NO: 113), antisense AUAGAGAuuuucAuaGcAGUU (SEQ ID NO: 114) (sense CUGCUAUGAAAAUCUCUAUTT; antisense AUAGAGAUUUUCAUAGCAGUU; sense: DNA at AGT, 2'-fluoro at CU, [invAb] at 5' end, 3' end, backbone not given here; antisense: RNA at 1, 2, 3, 2'-O-methyl at 4, 5, 6, 7, 13, 16, 18, 19, 20, 21, 2'-fluoro at 8, 9, 10, 11, 12, 14, 17, other sugars and backbone not given here)” the “% KD mTSLP NIH3T3” value (mTSLP mRNA) was 48.6 ± 2.2% and the “% KD TSLP” value (TSLP mRNA [1]) was 23 ± 4.8%.

From patent US20120022143A1, “RNA Interference Mediated Inhibition of the Thymic Stromal Lymphopoietin (TSLP) Gene Expression Using Short Interfering Nucliec Acid (siNA)” (Merck Sharp & Dohme Corp, priority 2009, published 2012)
